One data set concerns the target Trypsin (Homo sapiens, UniProt P07477+P07478+P35030). Description: Inhibition of trypsin (unknown origin) at 50 uM using Boc-Val-Pro-Arg-AMC as substrate preincubated for 15 mins followed by substrate addition and measured for 15 mins by fluorimetric assay relative to control. Type of data set: protein assay. The following applies: 0.25 h, 50 µM.
The next data set has as its target Prothrombin (Homo sapiens, UniProt P00734). Description: Inhibition of thrombin (unknown origin) at 25 uM using Boc-Val-Pro-Arg-AMC as substrate preincubated for 15 mins followed by substrate addition and measured for 15 mins by fluorimetric assay. The settings on record: 0.25 h.
Data set [1] concerns the target Genome polyprotein (dengue virus type 2) (UniProt P29990). In words: Inhibition of Dengue virus serotype 2 NS2B-NS3 protease expressed in Escherichia coli BL21 lambda (DE3) cells at 50 uM using Abz-Nle-Lys-Arg-Arg-Ser-3-(NO2)Tyr as substrate preincubated for 15 mins followed by substrate addition and measured for 15 mins by FRET assay relative to control.
Data set [2] can be described thus: Cytotoxicity against human HeLa cells assessed as reduction in cell viability measured after 24 hrs by celltiter-blue assay. The class given is cell-based.
Data set [3] concerns the target Genome polyprotein (dengue virus type 2) (UniProt P29990). In words: Inhibition of Dengue virus serotype 2 NS2B-NS3 protease transfected in human HeLa cells at 12.5 uM measured after 24 hrs by Renilla-luciferase reporter gene assay relative to control. Type of data set: cell-based. For orientation: A reporter such as luciferase makes a cellular process visible.
The target of data set [4] is Genome polyprotein (West Nile virus) (UniProt P06935). Description: Inhibition of West Nile virus NS2B-NS3 protease expressed in Escherichia coli BL21 lambda (DE3) cells at 50 uM using Abz-Gly-Leu-Lys-Arg-Gly-Gly-3-(NO2)Tyr as substrate preincubated for 15 mins followed by substrate addition measured for 15 mins by fluorimetric analysis relative to control.
Chain of Genome polyprotein (West Nile virus) (P06935 whole entry): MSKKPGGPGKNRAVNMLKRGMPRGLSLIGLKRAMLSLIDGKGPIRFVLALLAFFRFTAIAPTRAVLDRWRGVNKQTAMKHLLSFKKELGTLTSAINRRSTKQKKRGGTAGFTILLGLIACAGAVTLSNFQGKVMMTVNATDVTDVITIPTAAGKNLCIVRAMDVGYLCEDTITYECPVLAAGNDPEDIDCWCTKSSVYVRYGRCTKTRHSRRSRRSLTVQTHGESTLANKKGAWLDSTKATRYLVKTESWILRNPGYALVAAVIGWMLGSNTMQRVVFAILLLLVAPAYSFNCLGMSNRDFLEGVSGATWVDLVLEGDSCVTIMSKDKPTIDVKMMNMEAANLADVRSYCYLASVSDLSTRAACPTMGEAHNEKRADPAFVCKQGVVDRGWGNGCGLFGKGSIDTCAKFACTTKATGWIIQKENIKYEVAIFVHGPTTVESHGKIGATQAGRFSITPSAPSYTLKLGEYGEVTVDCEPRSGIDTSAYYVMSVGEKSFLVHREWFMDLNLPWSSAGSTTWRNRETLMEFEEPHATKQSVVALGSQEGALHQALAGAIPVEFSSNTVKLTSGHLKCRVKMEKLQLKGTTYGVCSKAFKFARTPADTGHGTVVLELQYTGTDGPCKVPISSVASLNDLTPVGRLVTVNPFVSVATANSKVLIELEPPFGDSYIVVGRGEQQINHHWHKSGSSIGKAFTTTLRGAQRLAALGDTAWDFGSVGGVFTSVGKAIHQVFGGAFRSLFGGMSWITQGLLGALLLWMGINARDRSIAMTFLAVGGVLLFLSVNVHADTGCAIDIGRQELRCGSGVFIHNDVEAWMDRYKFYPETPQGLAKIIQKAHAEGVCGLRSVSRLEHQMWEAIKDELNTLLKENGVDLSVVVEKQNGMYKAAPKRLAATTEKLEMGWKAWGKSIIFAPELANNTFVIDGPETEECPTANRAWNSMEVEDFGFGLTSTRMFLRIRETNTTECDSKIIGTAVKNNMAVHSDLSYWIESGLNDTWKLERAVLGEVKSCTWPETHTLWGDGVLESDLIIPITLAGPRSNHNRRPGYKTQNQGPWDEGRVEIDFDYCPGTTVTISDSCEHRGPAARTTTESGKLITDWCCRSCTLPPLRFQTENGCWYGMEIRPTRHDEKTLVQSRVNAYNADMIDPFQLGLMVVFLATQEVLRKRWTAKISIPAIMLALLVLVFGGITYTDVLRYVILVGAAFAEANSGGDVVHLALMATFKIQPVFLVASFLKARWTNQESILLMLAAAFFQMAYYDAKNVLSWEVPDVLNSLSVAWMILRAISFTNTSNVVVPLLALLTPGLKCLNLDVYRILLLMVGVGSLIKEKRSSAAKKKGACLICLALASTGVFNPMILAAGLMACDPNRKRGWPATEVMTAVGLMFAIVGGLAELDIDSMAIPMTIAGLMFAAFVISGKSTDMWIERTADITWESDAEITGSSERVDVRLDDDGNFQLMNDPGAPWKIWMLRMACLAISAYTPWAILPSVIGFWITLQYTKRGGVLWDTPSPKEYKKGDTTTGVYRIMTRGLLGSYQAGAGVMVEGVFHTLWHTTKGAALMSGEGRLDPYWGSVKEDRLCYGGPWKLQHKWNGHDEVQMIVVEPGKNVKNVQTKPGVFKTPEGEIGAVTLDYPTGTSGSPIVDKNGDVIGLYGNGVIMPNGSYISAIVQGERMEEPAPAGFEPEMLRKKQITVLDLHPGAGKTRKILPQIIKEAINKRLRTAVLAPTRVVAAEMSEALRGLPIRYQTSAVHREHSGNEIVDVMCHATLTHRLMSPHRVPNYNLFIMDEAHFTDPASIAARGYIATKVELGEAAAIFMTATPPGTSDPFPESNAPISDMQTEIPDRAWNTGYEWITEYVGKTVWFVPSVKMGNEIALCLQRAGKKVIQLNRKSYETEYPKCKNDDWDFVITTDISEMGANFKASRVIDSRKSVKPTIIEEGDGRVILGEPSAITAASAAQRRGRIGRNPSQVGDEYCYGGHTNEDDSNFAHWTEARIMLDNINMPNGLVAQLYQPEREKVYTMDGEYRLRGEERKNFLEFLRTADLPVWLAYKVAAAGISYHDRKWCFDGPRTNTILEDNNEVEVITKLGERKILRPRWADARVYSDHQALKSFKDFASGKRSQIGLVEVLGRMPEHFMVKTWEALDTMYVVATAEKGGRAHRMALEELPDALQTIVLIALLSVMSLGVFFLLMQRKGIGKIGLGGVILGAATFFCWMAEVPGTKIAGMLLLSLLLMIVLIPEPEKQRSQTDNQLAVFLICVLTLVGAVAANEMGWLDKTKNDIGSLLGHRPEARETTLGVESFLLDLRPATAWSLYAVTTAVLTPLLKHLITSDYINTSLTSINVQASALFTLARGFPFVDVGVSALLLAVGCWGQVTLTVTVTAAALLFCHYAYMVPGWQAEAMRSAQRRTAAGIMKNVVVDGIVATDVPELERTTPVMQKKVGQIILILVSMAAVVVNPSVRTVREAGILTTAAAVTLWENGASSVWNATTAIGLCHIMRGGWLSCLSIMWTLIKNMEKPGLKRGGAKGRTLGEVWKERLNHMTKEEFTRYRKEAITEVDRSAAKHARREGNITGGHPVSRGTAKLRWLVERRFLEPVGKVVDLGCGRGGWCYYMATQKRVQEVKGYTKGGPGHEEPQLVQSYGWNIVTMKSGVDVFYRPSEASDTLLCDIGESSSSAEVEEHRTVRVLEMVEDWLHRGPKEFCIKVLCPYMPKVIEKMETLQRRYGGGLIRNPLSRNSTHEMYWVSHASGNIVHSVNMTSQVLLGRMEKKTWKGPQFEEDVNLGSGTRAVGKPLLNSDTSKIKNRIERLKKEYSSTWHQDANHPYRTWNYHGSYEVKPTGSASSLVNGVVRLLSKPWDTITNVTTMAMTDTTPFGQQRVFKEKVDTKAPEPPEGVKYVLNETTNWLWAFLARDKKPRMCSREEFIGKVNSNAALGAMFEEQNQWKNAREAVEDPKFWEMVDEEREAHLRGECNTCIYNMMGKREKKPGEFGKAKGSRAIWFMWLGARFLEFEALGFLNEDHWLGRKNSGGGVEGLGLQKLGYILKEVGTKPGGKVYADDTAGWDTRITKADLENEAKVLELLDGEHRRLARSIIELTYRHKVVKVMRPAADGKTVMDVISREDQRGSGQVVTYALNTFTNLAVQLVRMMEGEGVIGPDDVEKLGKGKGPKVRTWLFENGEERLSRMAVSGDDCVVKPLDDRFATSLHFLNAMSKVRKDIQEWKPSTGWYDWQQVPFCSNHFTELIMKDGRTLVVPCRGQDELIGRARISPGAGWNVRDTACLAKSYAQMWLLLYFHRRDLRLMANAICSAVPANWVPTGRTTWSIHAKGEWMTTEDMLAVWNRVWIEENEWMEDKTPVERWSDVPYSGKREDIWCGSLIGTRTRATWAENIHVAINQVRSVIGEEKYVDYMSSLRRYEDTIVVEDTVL

Take `N=C(N)NCCC[C@H](NC(=O)c1ccc(/C=C2\SC(=O)N(C3CCC3)C2=O)cc1)C(=O)N[C@@H](CCCCN)C(=O)N[C@H](C(N)=O)c1ccccc1`: the “inhibition (INH)” value against Trypsin and on Prothrombin was “Not Active” in each case.

Broadly, the inhibition is how much of the control response was suppressed. The low end stands for a weak effect, the high end for a strong effect. The CC50 is the concentration that lowers cell viability or growth by half. In the case of `CCCCCC(=O)N[C@H](C(=O)NCc1ccc(N)cc1)c1ccc(OCc2ccccc2)cc1.O=C(O)C(F)(F)F`, the “inhibition (INH)” value on Trypsin and against Prothrombin was “Not Active” in each case. Moreover, the inhibition in data set [1] was found to be 13%; in data set [3], 43%; in data set [4] it was 13.5%. Besides, the CC50 at 24 h in data set [2] was more than 50 µM.

In the case of `CCCCCC(=O)N[C@H](C(=O)NCc1ccc(NC(=N)N)cc1)c1ccccc1.O=C(O)C(F)(F)F`, the “inhibition (INH)” value on Trypsin and at Prothrombin was “Not Active” each time. The inhibition in data set [1] was less than 10%; in data set [3], 18.8%; in data set [4] it was less than 10%. Further, the CC50 at 24 h in data set [2] was more than 50 µM.

On to `CCCCCC(=O)N[C@H](C(=O)NCc1ccc(NC(=O)CN)cc1)c1ccc(OCc2ccccc2)cc1`, for which the “inhibition (INH)” value on Trypsin and against Prothrombin was “Not Active” each time. Moreover, the inhibition in data set [1] was 28.2%; in data set [3] it was 10.1%; in data set [4] it was less than 10%. In addition, the half-maximal cytotoxic concentration (CC50) at 24 h in data set [2] was more than 50 µM.

In the case of `CCCCCC(=O)N[C@H](C(=O)Nc1ccc(CN)cc1)c1ccc(OCc2ccccc2)cc1.O=C(O)C(F)(F)F`, the “inhibition (INH)” value against Trypsin and against Prothrombin was “Not Active” throughout. The inhibition worked out at 26.5% in data set [1] and 37.6% in data set [4]. The CC50 at 24 h in data set [2] was less than 12.5 µM.

Take `CCCCCC(=O)N[C@H](C(=O)NCc1ccc(NC(N)=O)cc1)c1ccc(OCc2ccccc2)cc1`: the “inhibition (INH)” value against Trypsin and at Prothrombin was “Not Active” in each case. For the same compound, the inhibition in data set [1] stood at 23.1%; in data set [3], 24%; in data set [4], 34.2%. Besides, the CC50 at 24 h in data set [2] is more than 50 µM.

For the compound `CCCCCC(=O)N[C@H](C(=O)NCc1ccccc1)c1ccc(OCc2ccccc2)cc1`, the “inhibition (INH)” value on Trypsin and against Prothrombin was “Not Active” throughout. For the same compound, the inhibition in data set [1], in data set [3] and in data set [4] was less than 10% each time. The CC50 at 24 h in data set [2] was more than 50 µM.

`CCCCCC(=O)N[C@H](C(=O)NCCCCN)c1ccc(OCc2ccccc2)cc1`: the “inhibition (INH)” value against Trypsin and against Prothrombin was “Not Active” each time. Besides, the inhibition was 21.3% in data set [1], 45.8% in data set [3] and less than 10% in data set [4]. Also, the CC50 at 24 h in data set [2] was more than 50 µM.

As for `CCCCCC(=O)N[C@H](C(=O)NCc1ccc(C(=O)NN)cc1)c1ccc(OCc2ccccc2)cc1`, the “inhibition (INH)” value at Trypsin and at Prothrombin was “Not Active” in each case. Also, the values for the inhibition in data set [1], in data set [3] and in data set [4] were 28.3%, 30.7% and 55%, respectively. Moreover, the CC50 at 24 h in data set [2] was more than 50 µM.

`CCCCCC(=O)N[C@H](C(=O)NCc1cccc(CNC(=N)N)c1)c1ccc(OCc2ccccc2)cc1`: the “inhibition (INH)” value against Trypsin and on Prothrombin was “Not Active” in each case. In addition, the inhibition in data set [1] came to 43.8%; in data set [3], 47.4%; in data set [4], 32.7%. The CC50 at 24 h in data set [2] is more than 50 µM.

Regarding `N=C(N)NCCC[C@H](NC(=O)[C@H](Cc1ccc(CN)cc1)NC(=O)c1ccccc1)B(O)O`, the “inhibition (INH)” value against Trypsin and at Prothrombin was “Not Active” each time.

As for `CCCCCC(=O)N[C@H](C(=O)Nc1ccc(NC(=N)N)cc1)c1ccc(OCc2ccccc2)cc1.O=C(O)C(F)(F)F`, the “inhibition (INH)” value on Trypsin and on Prothrombin was “Not Active” throughout. The results for the inhibition in data set [1] and in data set [4] were 62.6% and 53.8%, respectively. Also, in data set [2], the CC50 at 24 h is not below 12.5 µM.

(Values after ChEMBL document CHEMBL4619777, “A New Class of Dengue and West Nile Virus Protease Inhibitors with Submicromolar Activity in Reporter Gene DENV-2 Protease and Viral Replication Assays” (J Med Chem, 2020).)
